Laboratory results: patent US8937089B2, “Synergistic mixtures of anthranilamide invertebrate pest control agents” (priority 2004, dated 2015)

Key:
Experiment in all cases: whole plant or invertebrate
Format in all cases: in vivo
[1] = system: potato leafhopper (Empoasca fabae Harris)
Method: (§1) Test compounds were formulated using a solution containing 10% acetone, 90% water and 300 ppm X-77® Spreader Lo-Foam Formula non-ionic surfactant containing alkylarylpolyoxyethylene, free fatty acids, glycols and 2-propanol (Loveland Industries, Inc.) to provide the desired concentration in ppm. Formulated test solutions were then applied in 1 mL volumes through a SUJ2 atomizer nozzle with 1/8 JJ custom body (Spraying Systems Co.) positioned 1.27 cm (0.5 inches) above the top of each test unit.
[…] White sand was added to the top of the soil, and one of the primary leaves was excised prior to application. Test compounds were formulated and sprayed with 3 replications as described for Test A. After spraying, the test units were allowed to dry for 1 hour before they were infested with 5 potato leafhoppers (18- to 21-day-old adults). A black, screened cap was placed on the top of each container. The test units were held for 6 days in a growth chamber at 19-21° C. and 50-70% relative humidity.

[2] = system: western flower thrip (Frankliniella occidentalis Pergande)
Method: as §1
For evaluating control of the western flower thrip (Frankliniella occidentalis Pergande) through contact and/or systemic means, each test unit consisted of a small open container with a 5- to 7-day-old bean (var. Soleil) plant inside.
Test solutions were formulated and sprayed with 3 replications as described for Test A. After spraying, the test units were allowed to dry for 1 hour, 22 to 27 adult thrips were added to each unit and then a black, screened cap was placed on top. The test units were held for 7 days at 25° C. and 45-55% relative humidity.

[3] = system: cotton melon aphid (Aphis gossypii Glover)
Method: as §1
(§2) For evaluating control of cotton melon aphid (Aphis gossypii Glover) through contact and/or systemic means, each test unit consisted of a small open container with a 6- to 7-day-old cotton plant inside. This was pre-infested by placing on a leaf of the test plant 30 to 40 aphids on a piece of leaf excised from a culture plant (cut-leaf method). The larvae moved onto the test plant as the leaf piece desiccated. After pre-infestation, the soil of the test unit was covered with a layer of sand.
(§3) Test compounds were formulated and sprayed as described for Test A. The applications were replicated three times. After spraying of the formulated test compounds, each test unit was allowed to dry for 1 hour and then a black, screened cap was placed on top. The test units were held for 6 days in a growth chamber at 19-21° C. and 50-70% relative humidity.

[4] = system: corn planthopper (Peregrines maidis)
Method: as §1
For evaluating control of corn planthopper (Peregrines maidis) through contact and/or systemic means, each test unit consisted of a small open cylindrical container with a 3- to 4-day-old corn (maize) plant (spike) inside. White sand was added to the top of the soil prior to application. Test compounds were formulated and sprayed with 3 replications as described for Test A. After spraying, the test units were allowed to dry for 1 hour before they were post-infested with 10 to 20 corn planthoppers (18- to 20-day-old nymphs) by sprinkling them onto the sand with a salt shaker. A black, screened cap was placed on the top of each container. The test units were held for 6 days in a growth chamber at 19-21° C. and 50-70% relative humidity.

[5] = system: green peach aphid (Myzus persicae Sulzer); conditions: Green Peach Aphid
Method: as §1
as §2, with “green peach” for “cotton melon”, “(Myzus persicae Sulzer)” for “(Aphis gossypii Glover)”, “12-” for “6-”, “15-day-old radish” for “7-day-old cotton”
as §3, with “described in” for “described for”, “Test A,” for “Test A. The applications were”, “test compound,” for “test compounds,”

[6] = system: silverleaf whitefly (Bemisia argentifolii Bellows and Perring); conditions: Table 2B
Description: For evaluating control of silverleaf whitefly (Bemisia argentifolii Bellows and Perring) through contact and/or systemic means, each test unit consisted of a small open container with a 12- to 14-day-old cotton plant inside. This was pre-infested by placing test units into cages infested with adult whiteflies so that oviposition on the cotton leaves could occur. The adults were removed from the plants with an air-blast nozzle, and the test units were capped. The test units were then stored 2 to 3 days before spraying.
as §1
The results for all experimental compositions in this test were replicated three times. After spraying of the formulated test composition, each test unit was allowed to dry for 1 hour and the cap removed. The test units were held for 13 days in a growth chamber at 28° C. and 50-70% relative humidity.

[7] = rate 1 ppm, single compound, spray, 7 days
[8] = rate 100 ppm, single compound, spray, 7 days
[9] = rate 1000 ppm, single compound, spray, 7 days
[10] = Corn Plant Hopper, rate 1000 ppm
[11] = Myzus persicae, in Raphanus sativus, rate 1000 ppm, read-out: % mortality (obs)
[12] = rate 10 ppm, single compound, spray, 7 days
[13] = Corn Plant Hopper, rate 100 ppm

Compound: Chlorfenapyr
- % mortality (obs) ([1]; rate 1 ppm, alone): 73%
- % mortality (obs) ([1]; rate 5 ppm, alone): 100%
- % mortality (obs) ([1]; rate 20 ppm, alone): 100%
- % mortality (obs) ([2]; rate 5 ppm, single compound, spray, 7 days): 40%
- % mortality (obs) ([2]; rate 20 ppm, single compound, spray, 7 days): 70%
- % mortality (obs) ([2]; rate 150 ppm, single compound, spray, 7 days): 90%
- % mortality (obs) ([3]; rate 1 ppm): 27%
- % mortality (obs) ([3]; rate 10 ppm): 57%
- % mortality (obs) ([3]; rate 150 ppm): 67%
- % mortality (obs) ([4]; Corn Plant Hopper, rate 1.5 ppm): 31%
- % mortality (obs) ([4]; Corn Plant Hopper, rate 2.5 ppm): 15%
- % mortality (obs) ([4]; Corn Plant Hopper, rate 3.5 ppm): 11%
- % mortality (obs) ([5]; rate 1.5 ppm): 22%
- % mortality (obs) ([5]; rate 7 ppm): 36%
- % mortality (obs) ([5]; rate 35 ppm): 100%
- % mortality (obs) ([6]; rate 10 ppm): 6%
- % mortality (obs) ([6]; rate 100 ppm): 14%
- % mortality (obs) ([6]; rate 1000 ppm): 18%

Compound: Novaluron
- % mortality (obs) ([1]; rate 250 ppm, alone): 7%
- % mortality (obs) ([1]; rate 500 ppm, alone): 7%
- % mortality (obs) ([1]; rate 1000 ppm, alone): 0%
- % mortality (obs) [2, 7]: 50%
- % mortality (obs) [2, 8]: 50%
- % mortality (obs) [2, 9]: 80%
- % mortality (obs) ([3]; rate 50 ppm): 28%
- % mortality (obs) ([3]; rate 250 ppm): 30%
- % mortality (obs) ([3]; rate 1000 ppm): 29%
- % mortality (obs) ([4]; Corn Plant Hopper, rate 250 ppm): 7%
- % mortality (obs) ([4]; Corn Plant Hopper, rate 500 ppm): 5%
- % mortality (obs) [4, 10]: 100%
- % mortality (obs) ([5]; rate 250 ppm): 14%
- % mortality (obs) ([5]; rate 500 ppm): 24%
- % mortality (obs) ([5]; rate 1000 ppm): 25%
- % mortality (obs) ([6]; rate 2 ppm): 2%
- % mortality (obs) ([6]; rate 10 ppm): 0%
- % mortality (obs) ([6]; rate 250 ppm): 28%

Compound: O=C(NC(=O)c1c(F)cccc1F)Nc1cc(Cl)c(OC(F)(F)C(F)F)c(Cl)c1 [Hexaflumuron]
- mortality at 100 ppm ([1]; Empoasca fabae, rate 100 ppm, alone, read-out: % mortality (obs)): 13%
- mortality at 1000 ppm ([1]; Empoasca fabae, rate 1000 ppm, alone, read-out: % mortality (obs)): 13%
- mortality at 3000 ppm ([1]; Empoasca fabae, rate 3000 ppm, alone, read-out: % mortality (obs)): 27%
- mortality at 30 ppm ([3]; Aphis gossypii, rate 30 ppm, read-out: % mortality (obs)): 32%
- mortality at 1000 ppm ([3]; Aphis gossypii, rate 1000 ppm, read-out: % mortality (obs)): 30%
- mortality at 3000 ppm ([3]; Aphis gossypii, rate 3000 ppm, read-out: % mortality (obs)): 29%
- mortality at 100 ppm ([4]; Corn Plant Hopper, rate 100 ppm, read-out: % mortality (obs)): 6%
- mortality at 1000 ppm ([4]; Corn Plant Hopper, rate 1000 ppm, read-out: % mortality (obs)): 5%
- mortality at 3000 ppm ([4]; Corn Plant Hopper, rate 3000 ppm, read-out: % mortality (obs)): 4%
- mortality at 100 ppm ([5]; Myzus persicae, in Raphanus sativus, rate 100 ppm, read-out: % mortality (obs)): 8%
- mortality at 1000 ppm [5, 11]: 6%
- mortality at 3000 ppm ([5]; Myzus persicae, in Raphanus sativus, rate 3000 ppm, read-out: % mortality (obs)): 13%
- mortality at 10 ppm ([6]; Bemisia argentifolii, in Gossypium hirsutum, rate 10 ppm, read-out: % mortality (obs)): 1%
- mortality at 60 ppm ([6]; Bemisia argentifolii, in Gossypium hirsutum, rate 60 ppm, read-out: % mortality (obs)): 0%
- mortality at 360 ppm ([6]; Bemisia argentifolii, in Gossypium hirsutum, rate 360 ppm, read-out: % mortality (obs)): 0%

Compound: Pyriproxyfen
- % mortality (obs) ([1]; rate 10 ppm, alone): 13%
- % mortality (obs) ([1]; rate 100 ppm, alone): 0%
- % mortality (obs) ([1]; rate 1000 ppm, alone): 7%
- % mortality (obs) [2, 12]: 100%
- % mortality (obs) [2, 8]: 100%
- % mortality (obs) [2, 9]: 100%
- % mortality (obs) ([3]; rate 10 ppm): 14%
- % mortality (obs) ([3]; rate 100 ppm): 28%
- % mortality (obs) ([3]; rate 1000 ppm): 33%
- % mortality (obs) ([4]; Corn Plant Hopper, rate 10 ppm): 0%
- % mortality (obs) [4, 13]: 8%
- % mortality (obs) [4, 10]: 12%
- % mortality (obs) ([5]; rate 10 ppm): 23%
- % mortality (obs) ([5]; rate 100 ppm): 12%
- % mortality (obs) ([5]; rate 1000 ppm): 26%
- % mortality (obs) ([6]; rate 10 ppm): 100%
- % mortality (obs) ([6]; rate 15 ppm): 100%
- % mortality (obs) ([6]; rate 20 ppm): 100%

Compound: O=C(NC(=O)c1c(F)cccc1F)Nc1cc(Cl)c(OC(F)(F)C(F)C(F)(F)F)cc1Cl (stereo not drawn) [Lufenuron]
- mortality at 0.08 ppm ([1]; Empoasca fabae, rate 0.08 ppm, alone, read-out: % mortality (obs)): 40%
- mortality at 0.4 ppm ([1]; Empoasca fabae, rate 0.4 ppm, alone, read-out: % mortality (obs)): 53%
- mortality at 2 ppm ([1]; Empoasca fabae, rate 2 ppm, alone, read-out: % mortality (obs)): 40%
- mortality at 10 ppm ([2]; Frankliniella occidentalis, 168 h, rate 10 ppm, single compound, spray, 7 days, read-out: % mortality (obs)): 90%
- mortality at 100 ppm ([2]; Frankliniella occidentalis, 168 h, rate 100 ppm, single compound, spray, 7 days, read-out: % mortality (obs)): 80%
- mortality at 500 ppm ([2]; Frankliniella occidentalis, 168 h, rate 500 ppm, single compound, spray, 7 days, read-out: % mortality (obs)): 80%
- mortality at 0.08 ppm ([3]; Aphis gossypii, rate 0.08 ppm, read-out: % mortality (obs)): 28%
- mortality at 0.4 ppm ([3]; Aphis gossypii, rate 0.4 ppm, read-out: % mortality (obs)): 39%
- mortality at 2 ppm ([3]; Aphis gossypii, rate 2 ppm, read-out: % mortality (obs)): 58%
- mortality at 0.08 ppm ([4]; Corn Plant Hopper, rate 0.08 ppm, read-out: % mortality (obs)): 9%
- mortality at 0.4 ppm ([4]; Corn Plant Hopper, rate 0.4 ppm, read-out: % mortality (obs)): 7%
- mortality at 2 ppm ([4]; Corn Plant Hopper, rate 2 ppm, read-out: % mortality (obs)): 7%
- mortality at 50 ppm ([5]; Myzus persicae, in Raphanus sativus, rate 50 ppm, read-out: % mortality (obs)): 34%
- mortality at 250 ppm ([5]; Myzus persicae, in Raphanus sativus, rate 250 ppm, read-out: % mortality (obs)): 15%
- mortality at 1000 ppm [5, 11]: 28%

Compound: Abamectin
- % mortality (obs) ([1]; rate 10 ppm, alone): 47%
- % mortality (obs) ([1]; rate 100 ppm, alone): 100%
- % mortality (obs) ([1]; rate 1000 ppm, alone): 100%
- % mortality (obs) [2, 7]: 100%
- % mortality (obs) [2, 12]: 100%
- % mortality (obs) [2, 8]: 100%
- % mortality (obs) ([3]; rate 0.08 ppm): 35%
- % mortality (obs) ([3]; rate 0.4 ppm): 58%
- % mortality (obs) ([3]; rate 2 ppm): 100%
- % mortality (obs) ([4]; Corn Plant Hopper, rate 1.6 ppm): 7%
- % mortality (obs) ([4]; Corn Plant Hopper, rate 8 ppm): 93%
- % mortality (obs) ([4]; Corn Plant Hopper, rate 40 ppm): 100%
- % mortality (obs) ([5]; rate 0.08 ppm): 47%
- % mortality (obs) ([5]; rate 0.4 ppm): 100%
- % mortality (obs) ([5]; rate 2 ppm): 100%

Compound: Dinotefuran
- % mortality (obs) ([1]; in vivo): 7%
- % mortality (obs) ([2]; in vivo): 50%
- % mortality (obs) ([4]; in vivo): 5%

Compound: COC(C)(C)CCC[C@H](C)C/C=C/C(C)=C/C(=O)OC(C)C (racemic) [Methoprene]
- % mortality (obs) ([1]; in vivo): 0%

Compound: Lambda-cyhalothrin
- % mortality (obs) ([2]; in vivo): 40%
- % mortality (obs) ([4]; in vivo): 7%

Compound: Clothianidin
- % mortality (obs) ([1]; rate 10 ppm, alone): 93%
- % mortality (obs) ([1]; rate 100 ppm, alone): 100%
- % mortality (obs) ([1]; rate 1000 ppm, alone): 100%
- % mortality (obs) [2, 8]: 90%
- % mortality (obs) ([2]; rate 500 ppm, single compound, spray, 7 days): 100%
- % mortality (obs) [2, 9]: 100%
- % mortality (obs) ([3]; rate 0.08 ppm): 75%
- % mortality (obs) ([3]; rate 0.4 ppm): 91%
- % mortality (obs) ([3]; rate 2 ppm): 99%
- % mortality (obs) ([4]; Corn Plant Hopper, rate 10 ppm): 100%
- % mortality (obs) [4, 13]: 100%
- % mortality (obs) [4, 10]: 100%
- % mortality (obs) ([5]; rate 0.08 ppm): 100%
- % mortality (obs) ([5]; rate 0.4 ppm): 100%
- % mortality (obs) ([5]; rate 2 ppm): 100%
